Assay results reported in patent publication US5362634A, “Process for producing A83543 compounds” (DowElanco, priority 1991, dated 1994).
Like-named read-outs stand apart in the source and are kept apart here.

What was measured:
adult stable fly (ASF) = assay: In vitro efficacy, exposure of ASF to chemically added serum samples; details: Stomoxys calcitrans, read-out: Percent insect mortality
From the text: (§1) ^1 Percent insect mortality following 24 to 48 hrs. in vitro exposure
(§2) to chemically added serum samples

[1] = system: neonate CBW (cotton bollworm) larvae; assay: Topical test against neonate CBW larvae; format: in vivo, Heliothis zea; details: 24 h, 1 day
Method: Each test compound was formulated by dissolving the compound in an acetone/alcohol (1:1) mixture containing 23 g of "Toximul R" (sulfonate/nonionic emulsifier blend) and 13 g of "Toximul S" (sulfonate/nonionic emulsifier blend) per liter. These mixtures were then diluted with water to give the indicated concentrations.
Additional insects were evaluated using similar formulations and evaluation procedures, with the exceptions noted.
After standard exposure periods, percent mortality was evaluated. The following abbreviations are used:
^b Mean of two replicates tested
^c Treated with 1 mL of formulated A83543A

blow fly larvae (LBF) = assay: In vitro efficacy, exposure of LBF to chemically added serum samples
From the text: as §1, §2

black blow fly larvae = assay: In vitro efficacy against black blow fly larvae; details: Phormia regina
From the text: Tables XIX-XXI summarize in vitro studies with A83543A and A83543D.

adult stable fly = assay: Insecticidal assay in blood of sheep challenged with Haemonchus contortus, adult stable fly; format: in vivo; design: mortality: dose or concentration left out as unconfirmed; details: Stomoxys calcitrans, read-out: Percent Insecticide Mortality; for mortality at 1 mg/kg: iv, 1 × 1 mg/kg IV
Method: Blood is drawn from the guinea pigs at 30 minutes except as noted, and the samples of blood are centrifuged. Dental wicks are saturated with the blood serum, and then exposed in Petri dishes to adult stable flies; blow fly larvae are exposed in test tubes. After 24 and 48 hours, the insects are examined, and the number of dead are counted. The results of the tests are recorded as the percent of the insects which are killed.
Tests are carried out in sheep using the test method described supra in the Guinea Pig Test description. […]
^b Amount (mg/kg) times number of doses administered
^c Times postadministration at which blood is drawn

sheep = assay: Toxicity to the host animal, sheep systemic test; format: in vivo; design: key: N: none
Method: Tests are carried out in sheep using the test method described supra in the Guinea Pig Test description. Test compound is administered by intraperitoneal or intravenous injection or intraruminally; blood samples are drawn at 24 hours in these tests.

[2] = 0 h, Day 0, A, 24-hour exposure
[3] = 0 h, Day 0, A, 48-hour exposure
[4] = 24 h, Day 1, A, 24-hour exposure
[5] = 24 h, Day 1, A, 48-hour exposure
[6] = 48 h, Day 2, A, 24-hour exposure
[7] = 72 h, Day 3, A, 24-hour exposure
[8] = 72 h, Day 3, A, 48-hour exposure
[9] = 120 h, Day 5, A, 48-hour exposure

## CC[C@H]1CCC[C@H](O[C@H]2CC[C@H](N(C)C)[C@@H](C)O2)[C@@H](C)C(=O)C2=C[C@@H]3[C@@H](C=C[C@@H]4C[C@@H](O[C@@H]5O[C@@H](C)[C@H](OC)[C@@H](OC)[C@H]5OC)C[C@@H]34)[C@@H]2CC(=O)O1 [A83543A]
Adult stable fly (ASF); 24 hr
  mortality at 0.312 ppm: 0%
  mortality at 0.625 ppm: 0%
  mortality at 1.25 ppm: 20%
  mortality at 2.5 ppm: 30%
  mortality at 5 ppm: 50%
  mortality at 10 ppm: 80%
Adult stable fly (ASF); 48 hr
  mortality at 0.312 ppm: 50%
  mortality at 0.625 ppm: 70%
  mortality at 1.25 ppm: 100%
  mortality at 2.5 ppm: 100%
  mortality at 5 ppm: 100%
  mortality at 10 ppm: 100%
[1]; 0.50 ppm, second series
  inhibition at 0.5 ppm: 10%
[1]; first series, mean of two replicates
  inhibition at 1 ppm: 20%
[1]; second series
  inhibition at 1 ppm: 40%
  inhibition at 5 ppm: 80%
  inhibition at 10 ppm: 100%
  inhibition at 50 ppm: 100%
  inhibition at 100 ppm: 70%
[1]; first series
  inhibition at 5 ppm: 100%
  inhibition at 10 ppm: 100%
  inhibition at 50 ppm: 100%
  inhibition at 100 ppm: 100%
Blow fly larvae (LBF); 0.312 ppm, 24 hr
  Percent insect mortality: 25%
Blow fly larvae (LBF); 0.312 ppm, 48 hr
  Percent insect mortality: 50%
Blow fly larvae (LBF); 0.625 ppm, 24 hr
  Percent insect mortality: 60%
Blow fly larvae (LBF); 0.625 ppm, 48 hr
  Percent insect mortality: 90%
Blow fly larvae (LBF); 1.25 ppm, 24 hr
  Percent insect mortality: 100%
Blow fly larvae (LBF); 1.25 ppm, 48 hr
  Percent insect mortality: 100%
Blow fly larvae (LBF); 2.5 ppm, 24 hr
  Percent insect mortality: 100%
Blow fly larvae (LBF); 2.5 ppm, 48 hr
  Percent insect mortality: 100%
Blow fly larvae (LBF); 5 ppm, 24 hr
  Percent insect mortality: 100%
Blow fly larvae (LBF); 5 ppm, 48 hr
  Percent insect mortality: 100%
Blow fly larvae (LBF); 10 ppm, 24 hr
  Percent insect mortality: 100%
Blow fly larvae (LBF); 10 ppm, 48 hr
  Percent insect mortality: 100%
Black blow fly larvae; 0.25 ppm
  mortality at 0.25 ppm: 25%
Black blow fly larvae; 0.5 ppm
  mortality at 0.5 ppm: 60%
Black blow fly larvae; 1 ppm
  mortality at 1 ppm: 95%
Black blow fly larvae; 2 ppm
  mortality at 2 ppm: 100%
Black blow fly larvae; 5 ppm
  mortality at 5 ppm: 100%
Black blow fly larvae; 10 ppm
  mortality at 10 ppm: 100%
Black blow fly larvae; 25 ppm
  mortality at 25 ppm: 100%
Black blow fly larvae; 50 ppm
  mortality at 50 ppm: 100%
Black blow fly larvae; 100 ppm
  mortality at 100 ppm: 100%
Adult stable fly; [2]
  mortality: 0%
  mortality at 1 mg/kg: 0%
Adult stable fly; [3]
  mortality: 0%
  mortality at 1 mg/kg: 0%
Adult stable fly; 5 h, A, 24-hour exposure
  mortality: 10%
Adult stable fly; 24 h, 35 min, A, 24-hour exposure
  mortality: 10%
Adult stable fly; 24 h, 5 hr, A, 24-hour exposure
  mortality: 10%
Adult stable fly; 24 h, Day 0, A, 24-hour exposure
  mortality: 0%
Adult stable fly; [4]
  mortality: 10%
  mortality at 50 mg/kg: 0%
  mortality at 1 mg/kg: 0%
Adult stable fly; [5]
  mortality: 90%
  mortality at 50 mg/kg: 60%
  mortality at 1 mg/kg: 0%
Adult stable fly; 48 h, 25 × 2 mg/kg IR, Day 2, A, 24-hour exposure
  mortality at 2 mg/kg: 20%
Adult stable fly; [6]
  mortality: 20%
  mortality at 1 mg/kg: 0%
Adult stable fly; [7]
  mortality: 0%
  mortality at 1 mg/kg: 0%
Adult stable fly; [8]
  mortality: 70%
  mortality at 1 mg/kg: 0%
Adult stable fly; [9]
  mortality: 30%
  mortality at 1 mg/kg: 0%
Adult stable fly; ip, 0 h, Day 0, A, 48-hour exposure
  mortality at 50 mg/kg: 20%
Adult stable fly; ip, 35 min, A, 48-hour exposure
  mortality at 50 mg/kg: 0%
Adult stable fly; ip, 5 h, A, 48-hour exposure
  mortality at 50 mg/kg: 10%
Adult stable fly; ip, 24 h, 35 min, A, 24-hour exposure
  mortality at 50 mg/kg: 0%
Adult stable fly; ip, 24 h, 5 hr, A, 24-hour exposure
  mortality at 50 mg/kg: 0%
Adult stable fly; ip, 24 h, Day 0, A, 24-hour exposure
  mortality at 50 mg/kg: 0%
Adult stable fly; ip, 24 h, Day 1, A, 24-hour exposure
  mortality at 50 mg/kg: 0%
Adult stable fly; ip, 24 h, Day 1, A, 48-hour exposure
  mortality at 50 mg/kg: 0%
Adult stable fly; ip, 24 h, Day 2, A, 24-hour exposure
  mortality at 50 mg/kg: 10%
Adult stable fly; ip, 24 h, Day 3, A, 24-hour exposure
  mortality at 50 mg/kg: 0%
Adult stable fly; ip, 24 h, Day 4, A, 24-hour exposure
  mortality at 50 mg/kg: 10%
Adult stable fly; ip, 24 h, Day 5, A, 24-hour exposure
  mortality at 50 mg/kg: 0%
Adult stable fly; ip, 48 h, Day 2, A, 48-hour exposure
  mortality at 50 mg/kg: 30%
Adult stable fly; ip, 72 h, Day 3, A, 48-hour exposure
  mortality at 50 mg/kg: 10%
Adult stable fly; ip, 96 h, Day 4, A, 48-hour exposure
  mortality at 50 mg/kg: 20%
Adult stable fly; ip, 120 h, Day 5, A, 48-hour exposure
  mortality at 50 mg/kg: 0%
Adult stable fly; 35 min, 35 min, A, 24-hour exposure
  mortality at 1 mg/kg: 10%
Adult stable fly; 35 min, 35 min, A, 48-hour exposure
  mortality at 1 mg/kg: 10%
Adult stable fly; 5 h, 5 hr, A, 24-hour exposure
  mortality at 1 mg/kg: 0%
Adult stable fly; 5 h, 5 hr, A, 48-hour exposure
  mortality at 1 mg/kg: 20%
Adult stable fly; 48 h, Day 2, A, 48-hour exposure
  mortality at 1 mg/kg: 0%
Adult stable fly; 96 h, Day 4, A, 24-hour exposure
  mortality at 1 mg/kg: 0%
Adult stable fly; 96 h, Day 4, A, 48-hour exposure
  mortality at 1 mg/kg: 0%
Adult stable fly; 120 h, Day 5, A, 24-hour exposure
  mortality at 1 mg/kg: 0%
sheep; 1.0 mg/kg IV
  Tox: N
sheep; 10 mg/kg IP
  Tox: N
sheep; 10 mg/kg IR
  Tox: N
sheep; 30 mg/kg IP
  Tox: N
sheep; 30 mg/kg IR
  Tox: N
sheep; 50 mg/kg IP
  Tox: N
sheep; 50 mg/kg IR
  Tox: N
sheep; 2 × 25 mg/kg IR
  Tox: N
